US20210253575A1, “PYRROLIDINE AMINE COMPOUNDS FOR THE TREATMENT OF AUTOIMMUNE DISEASE” (Hoffmann-La Roche Inc., priority 2018, published 2021)

Biological target: T1, human TLR7 (Homo sapiens, UniProt Q9NYK1)
T1 sequence (Q9NYK1 27-1049): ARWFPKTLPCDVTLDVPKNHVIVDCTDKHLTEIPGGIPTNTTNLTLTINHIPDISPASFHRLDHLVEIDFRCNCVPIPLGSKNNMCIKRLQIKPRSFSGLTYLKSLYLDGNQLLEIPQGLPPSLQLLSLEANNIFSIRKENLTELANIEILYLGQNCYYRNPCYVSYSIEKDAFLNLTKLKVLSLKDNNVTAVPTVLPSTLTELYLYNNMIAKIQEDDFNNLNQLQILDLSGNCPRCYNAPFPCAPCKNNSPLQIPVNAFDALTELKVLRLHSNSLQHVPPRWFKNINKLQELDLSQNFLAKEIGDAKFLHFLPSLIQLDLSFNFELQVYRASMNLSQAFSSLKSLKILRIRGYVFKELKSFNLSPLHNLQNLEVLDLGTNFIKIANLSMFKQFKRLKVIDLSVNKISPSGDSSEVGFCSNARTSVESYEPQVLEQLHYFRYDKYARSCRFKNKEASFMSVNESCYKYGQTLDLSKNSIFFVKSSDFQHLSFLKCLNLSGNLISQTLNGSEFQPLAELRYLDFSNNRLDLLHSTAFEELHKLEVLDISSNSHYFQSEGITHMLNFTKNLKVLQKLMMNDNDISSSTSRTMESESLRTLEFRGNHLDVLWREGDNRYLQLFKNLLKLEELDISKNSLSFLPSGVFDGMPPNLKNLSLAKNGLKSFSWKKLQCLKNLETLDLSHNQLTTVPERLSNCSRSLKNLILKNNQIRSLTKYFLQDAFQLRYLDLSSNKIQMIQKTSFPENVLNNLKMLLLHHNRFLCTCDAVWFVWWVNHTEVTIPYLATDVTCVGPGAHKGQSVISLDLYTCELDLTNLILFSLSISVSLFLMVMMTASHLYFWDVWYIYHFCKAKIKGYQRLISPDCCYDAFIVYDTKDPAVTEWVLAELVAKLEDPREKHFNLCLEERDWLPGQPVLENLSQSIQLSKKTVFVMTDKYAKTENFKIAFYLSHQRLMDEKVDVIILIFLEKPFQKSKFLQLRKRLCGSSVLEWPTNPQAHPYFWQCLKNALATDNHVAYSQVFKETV
Assay: HEK293-Blue-hTLR-7 cells assay (SEAP reporter, R848 stimulation)
Type: cell-based
Conditions: HEK293-Blue-hTLR7 cells, R848 ligand, 20 hrs incubation
Procedure, shortened: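 Antagonism measured in stable HEK293-Blue-hTLR7 cells carrying an NF-κB/AP-1-driven SEAP reporter, stimulated with R848 (10 µL of 20 µM stock) with serially diluted compound, 1% DMSO, 20 h at 37 °C. Supernatant SEAP read with QUANTI-Blue after 2 h at 37 °C, absorbance 620–655 nm.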

| Compound | IC50 [nM] |
| --- | --- |
| N#Cc1ccc(N2C[C@H](CN3CCC4(CCNCC4)C3)[C@@H](C(F)(F)F)C2)c2cccnc12 [Example 56, 5-[(3S,4R)-3-(2,8-Diazaspiro[4.5]decan-2-ylmethyl)-4-(trifluoromethyl)pyrrolidin-1-yl]quinoline-8-carbonitrile] | 113 |
| N#Cc1ccc(N2CC(CNC3CCCNCC3)C3(CC3)C2)c2nccnc12 (centres unmarked) [Example 39, 8-[7-[(Azepan-4-ylamino)methyl]-5-azaspiro[2.4]heptan-5-yl]quinoxaline-5-carbonitrile] | 709 |
| N#Cc1ccc(N2CC(CN3CCC4(CCCNC4)CC3)C3(CC3)C2)c2nccnc12 (centres unmarked) [Example 13, 8-[7-(2,9-Diazaspiro[5.5]undecan-9-ylmethyl)-5-azaspiro[2.4]heptan-5-yl]quinoxaline-5-carbonitrile] | 102 |
| N#Cc1ccc(N2C[C@H](CN3CCCC(C(N)=O)C3)[C@@H](C(F)(F)F)C2)c2nccnc12 (stereo partly drawn) [Example 69, 1-[[(3S,4R)-1-(S-cyanoquinoxalin-5-yl)-4-(trifluoromethyl)pyrrolidin-3-yl]methyl]piperidine-3-carboxamide] | 135 |
| N#Cc1ccc(N2C[C@H](CN3CCC4(CCNCC4)C3)[C@@H](C(F)(F)F)C2)c2nccnc12 [Example 46, 8-[(3S,4R)-3-(2,8-diazaspiro[4.5]decan-2-ylmethyl)-4-(trifluoromethyl)pyrrolidin-1-yl]quinoxaline-5-carbonitrile] | 93 |
| N#Cc1ccc(N2C[C@H](CN3CCC(CCN)CC3)[C@@H](C(F)(F)F)C2)c2nccnc12 [Example 79, 8-[(3S,4R)-3-[[4-(2-aminoethyl)-1-piperidyl]methyl]-4-(trifluoromethyl)pyrrolidin-1-yl]quinoxaline-5-carbonitrile] | 37 |
| N#Cc1ccc(N2C[C@H](CN3CCC4(CCNC4)CC3)[C@@H](C(F)(F)F)C2)c2nccnc12 [Example 14, 8-[(3S,4R)-3-(2,8-Diazaspiro[4.5]decan-8-ylmethyl)-4-(trifluoromethyl)pyrrolidin-1-yl]quinoxaline-5-carbonitrile] | 43 |
| N#Cc1ccc(N2C[C@H](CN3CCCC4(CCNCC4)C3)[C@@H](C(F)(F)F)C2)c2cccnc12 [Example 57, 5-[(3S,4R)-3-(2,9-Diazaspiro[5.5]undecan-2-ylmethyl)-4-(trifluoromethyl)pyrrolidin-1-yl]quinoline-8-carbonitrile] | 73 |
